We go through 30 compounds from patent US20050059726A1, “Pyrrolidine-2-ones as factor xa inhibitors” (priority 2001, published 2005).

Where only a bound is given, the exact number is not on record here.

human Factor Xa, sequence (P00742 235-488 limits assumed): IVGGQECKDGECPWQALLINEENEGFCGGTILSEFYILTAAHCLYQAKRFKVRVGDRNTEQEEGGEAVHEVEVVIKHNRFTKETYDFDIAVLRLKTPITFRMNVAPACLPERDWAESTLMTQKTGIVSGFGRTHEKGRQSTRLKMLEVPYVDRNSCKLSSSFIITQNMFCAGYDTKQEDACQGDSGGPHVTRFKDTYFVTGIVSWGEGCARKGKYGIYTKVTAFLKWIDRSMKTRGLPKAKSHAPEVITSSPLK
human Factor Xa, sequence (P00742 41-179 partner limits assumed): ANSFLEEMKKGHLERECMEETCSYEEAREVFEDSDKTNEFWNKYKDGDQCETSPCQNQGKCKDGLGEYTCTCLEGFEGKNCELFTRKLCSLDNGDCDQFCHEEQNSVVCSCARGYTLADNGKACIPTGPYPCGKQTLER

The test concerns the target human Factor Xa (Homo sapiens, UniProt P00742). The test is described as follows: In vitro assay for inhibition of Factor Xa (2), fluorogenic assay. Type of test: biochemical. The following applies: substrate Rhodamine 110, bis-(CBZ-glycylglycyl-L-arginine amide 10 μM), Ki calculated from IC50. On the procedure: In Vitro Assay for Inhibition of Factor Xa (2)
All other compounds of the present invention were tested for their Factor Xa inhibitory activity as determined in vitro by their ability to inhibit human Factor Xa in a fluorogenic assay, using Rhodamine 110, bis-(CBZ-glycylglycyl-L-arginine amide as the fluorogenic substrate. Compounds were diluted from a 10 mM stock solution in dimethylsulfoxide at appropriate concentrations. Assay was performed at room temperature using buffer consisting of: 50 mM Tris-HCl, 150 mM NaCl, 5 mM CaCl2, pH 7.4. containing human Factor Xa (final conc. Of 0.0003U.ml−1). Compound and enzyme were preincubated for 15 min prior to addition of the substrate (final conc. of 10 μM). The reaction was stopped after 3 hrs with the addition of H-D-PHE-PRO-ARG-Chloromethylketone. […] To obtain IC50 values the data were analysed using ActivityBase® and XLfit®.
Calculation of Ki values:
Ki=IC50/(1+[Substrate]/Km)
The Ki value for the above assay can be obtained by dividing the IC50 value by 1.6.
By Ki is commonly meant a dissociation constant, usually derived from enzyme kinetics or from competition with a known ligand. Take `CS(=O)(=O)c1ccccc1-c1ccc(N2CC[C@H](N(CCN3CCOCC3)S(=O)(=O)/C=C/c3ccc(Cl)s3)C2=O)c(F)c1` [Example 45, (E)-2-(5-Chlorothien-2-yl)-N-{(3S)-1-[3-fluoro-2′-(methylsulfonyl)-1,1′-biphenyl-4-yl]-2-oxopyrrolidin-3-yl}-N-(2-morpholin-4-ylethyl)ethenesulfonamide]: the Ki was under 0.01 µM.
On to `CS(=O)(=O)c1ccccc1-c1ccc(N2CC[C@H](N(CC(N)=O)S(=O)(=O)/C=C/c3ccc(Cl)s3)C2=O)c(F)c1` [Example 46], for which the Ki is under 0.01 µM.
As for `CC(C)(C)OC(=O)CN([C@H]1CCN(c2ccc(-c3ccccc3S(C)(=O)=O)cc2F)C1=O)S(=O)(=O)/C=C/c1ccc(Cl)s1` [Example 47, tert-Butyl ({[(E)-2-(5-chlorothien-2-yl)ethenyl]sulfonyl}{(3S)-1-[3-fluoro-2′-(methylsulfonyl)-1,1′-biphenyl-4-yl]-2-oxopyrrolidin-3-yl}amino)acetate], the figure is under 0.01 µM; as for `CS(=O)(=O)c1ccccc1-c1ccc(N2CC[C@H](N(CC(=O)O)S(=O)(=O)/C=C/c3ccc(Cl)s3)C2=O)nc1` [Example 48, {[(E)-2-(5-Chlorothien-2-yl)(ethenyl]sulfonyl}((3S)-1-{5-[2-(methylsulfonyl)phenyl]pyridin-2-yl}-2-oxopyrrolidin-3-yl)amino]acetic Acid], under 0.01 µM.
With `CS(=O)(=O)c1ccccc1-c1ccc(N2CC[C@H](N(CC(=O)O)S(=O)(=O)/C=C/c3ccc(Cl)s3)C2=O)c(F)c1` [Example 49], the Ki was under 0.01 µM.
As for `NC(=O)c1cccc(-c2ccc(N3CC[C@H](NS(=O)(=O)c4ccc5cc(Cl)ccc5c4)C3=O)c(F)c2)c1` [Example 50, 4′-[(S)-3-(6-Chloro-naphthalene-2-sulphonylamino)-2-oxo-pyrrolidin-1-yl]-3′-fluoro-biphenyl-3-carboxylic Acid Amide], the figure is under 0.01 µM; as for `CSc1ccccc1-c1cnc(N2CC[C@H](NS(=O)(=O)c3ccc4cc(Cl)ccc4c3)C2=O)s1` [Example 51, 6-Chloro-naphthalene-2-sulphonic Acid [(S)-1-[5-(2-methylsulphanylphenyl)-thiazol-2-yl]-2-oxo:pyrrolidin-3-yl]amide], under 0.2 µM; as for `CS(=O)(=O)c1ccccc1-c1ccc(N2CC[C@H](NS(=O)(=O)c3cccc(CN)c3)C2=O)c(F)c1` [Example 53, 3-(Aminomethyl)-N-{(3S)-1-[3-fluoro-2′-(methylsulfonyl)-1,1′-biphenyl-4-yl]-2-oxopyrrolidin-3-yl}benzenesulfonamide], under 0.02 µM.
As for `O=C1[C@@H](NS(=O)(=O)c2ccc3cc(Cl)ccc3c2)CCN1c1ccc(-c2ccncc2)cc1F` [Example 55, 6-Chloro-N-[(3S)-1-(2-fluoro-4-pyridin-4-ylphenyl)-2-oxopyrrolidin-3-yl]naphthalene-2-sulfonamide], the figure is under 0.01 µM; as for `COc1ncc(-c2ccc(N3CC[C@H](NS(=O)(=O)c4ccc5cc(Cl)ccc5c4)C3=O)c(F)c2)c(OC)n1` [Example 56, 6-Chloro-N-{(3S)-1-[4-(2,4-dimethoxypyrimidin-5-yl)-2-fluorophenyl]oxopyrrolidin-3-yl}naphthalene-2-sulfonamide], under 0.2 µM; as for `O=C1[C@@H](NS(=O)(=O)c2ccc3cc(Cl)ccc3c2)CCN1c1ccc(-c2cccnc2)cc1F` [Example 57, 6-Chloro-N-[(3S)-1-(2-fluoro-4-pyridin-3ylphenyl)-2-oxopyrrolidin-3-yl]naphthalene-2-sulfonamide], under 0.01 µM.
As for `COc1ccc(-c2ccc(N3CC[C@H](NS(=O)(=O)c4ccc5cc(Cl)ccc5c4)C3=O)c(F)c2)cn1` [Example 58, 6-Chloro-N-{(3S)-1-[2-fluoro-4-(6-methoxypyridin-3-yl)phenyl]-2-oxopyrrolidin-3-yl}naphthalene-2-sulfonamide], the figure is under 0.2 µM; as for `CSc1ccc(-c2ccc(N3CC[C@H](NS(=O)(=O)c4ccc5cc(Cl)ccc5c4)C3=O)c(F)c2)cn1` [Example 60, 6-Chloro-N-((3S)-1-{2-fluoro-4-[6-(methylthio)pyridin-3-yl]phenyl}-2-oxopyrrolidin-3-yl)naphthalene-2-sulfonamide], under 0.2 µM.
On to `O=C1[C@@H](NS(=O)(=O)c2ccc3cc(Cl)ccc3c2)CCN1c1ccc(-c2cncc(Br)c2)cc1F` [Example 61, N-{(3S)-1-[4-(5-Bromopyridin-3-yl)-2-fluorophenyl]-2-oxopyrrolidin-3-yl}-6-chloronaphthalene-2-sulfonamide], for which the Ki was under 0.2 µM.
As for `COc1ccncc1-c1ccc(N2CC[C@H](NS(=O)(=O)c3ccc4cc(Cl)ccc4c3)C2=O)c(F)c1` [Example 62, 6-Chloro-N-{(3S)-1-[2-fluoro-4-(4-methoxypyridin-3-yl)phenyl]-2-oxopyrrolidin-3-yl}naphthalene-2-sulfonamide], the figure is under 0.01 µM; as for `O=C1[C@@H](NS(=O)(=O)c2ccc3cc(Cl)ccc3c2)CCN1c1ccc(-c2cncnc2)cc1F` [Example 63, 6-Chloro-N-[(3S)-1-(2-fluoro-4-pyrimidin-5-ylphenyl)-2-oxopyrrolidin-3-yl]naphthalene-2-sulfonamide], under 0.2 µM.
As for `NCc1cccc(-c2ccc(N3CC[C@H](NS(=O)(=O)c4ccc5cc(Cl)ccc5c4)C3=O)c(F)c2)c1` [Example 64], the figure is under 0.01 µM; as for `O=C1[C@@H](NS(=O)(=O)c2ccc3cc(Cl)ccc3c2)CCN1c1ccc(-c2ccoc2)cc1F` [Example 65, 6-Chloro-N-{(3S)-1-[2-fluoro-4-(3-furyl)phenyl]-2-oxopyrrolidin-3-}naphthalene-2-sulfonamide], under 0.2 µM; as for `O=C1[C@@H](NS(=O)(=O)c2ccc3cc(Cl)ccc3c2)CCN1c1ccc(-c2ccsc2)cc1F` [Example 67, 6-Chloro-N-[(3S)-1-(2-fluoro-4-thien-3-ylphenyl)-2-oxopyrrolidin-3-yl]naphthalene-2-sulfonamide], under 0.2 µM.
Next, `Cc1ccc(-c2ccc(N3CC[C@H](NS(=O)(=O)c4ccc5cc(Cl)ccc5c4)C3=O)c(F)c2)s1` [Example 68, 6-Chloro-N-{(3S)-1-[2-fluoro-4-(5-methylthien-2-yl)phenyl]-2-oxopyrrolidin-3-yl}naphthalene-2-sulfonamide]: under 0.2 µM.
Consider `Cc1cscc1-c1ccc(N2CC[C@H](NS(=O)(=O)c3ccc4cc(Cl)ccc4c3)C2=O)c(F)c1` [Example 69, 6-Chloro-N-{(3S)-1-[2-fluoro-4-(4-methylthien-3-yl)phenyl]-2-oxopyrrolidin-3-yl}naphthalene-2-sulfonamide], for which the Ki is under 0.2 µM.
As for `O=Cc1ccsc1-c1ccc(N2CC[C@H](NS(=O)(=O)c3ccc4cc(Cl)ccc4c3)C2=O)c(F)c1` [Example 70, 6-Chloro-N-{(3S)-1-[2-fluoro-4-(3-formylthien-2-yl)phenyl]-2-oxopyrrolidin-3-yl}naphthalene-2-sulfonamide], the figure is under 0.02 µM.
Next, `O=C1[C@@H](NS(=O)(=O)c2ccc3cc(Cl)ccc3c2)CCN1c1ccc(-c2ccc(Cl)s2)cc1F` [Example 71, 6-Chloro-N-{(3S)-1-[4-(5-chlorothien-2-yl)-2-fluorophenyl]-2-oxopyrrolidin-3-yl}naphthalene-2-sulfonamide]: under 0.2 µM.
Next, `Cc1noc(C)c1-c1ccc(N2CC[C@H](NS(=O)(=O)c3ccc4cc(Cl)ccc4c3)C2=O)c(F)c1` [Example 72, 6-Chloro-N-{(3S)-1-[4-(3,5-dimethylisoxazol-4-yl)-2-fluorophenyl]-2-oxopyrrolidin-3-yl}naphthalene-2-sulfonamide]: under 0.02 µM; `O=C1[C@@H](NS(=O)(=O)c2ccc3cc(Cl)ccc3c2)CCN1c1ccc(-c2ccccc2)cc1F` [Example 74, 6-Chloro-N-[(3S)-1-(3-fluoro-1,1′-biphenyl-4-yl)-2-oxopyrrolidin-3-yl]naphthalene-2-sulfonamide]: under 0.2 µM; `O=C1[C@@H](NS(=O)(=O)c2ccc3cc(Cl)ccc3c2)CCN1c1ccc(-c2cc[n+]([O-])cc2)cc1F` [Example 76, 6-Chloro-N-{(3S)-1-[2-fluoro-4-(1-oxidopyridin-4-yl)phenyl]-2-oxopyrrolidin-3-yl}naphthalene-2-sulfonamide]: under 0.02 µM.
For the compound `Cn1ccnc1-c1ccc(N2CC[C@H](NS(=O)(=O)c3ccc4cc(Cl)ccc4c3)C2=O)c(F)c1` [Example 77, 6-Chloro-N-{(3S)-1-[2-fluoro-4-(1-methyl-1H-imidazol-2-yl)phenyl]-2-oxopyrrolidin-3-yl}naphthalene-2-sulfonamide], the Ki is under 0.01 µM.
Next, `O=C1[C@@H](NS(=O)(=O)c2ccc3cc(Cl)ccc3c2)CCN1c1ccc(-c2cccnc2Cl)cc1F` [Example 78, 6-Chloro-N-{(3S)-1-[4-(2-chloropyridin-3-yl)-2-fluorophenyl]-2-oxopyrrolidin-3-yl}naphthalene-2-sulfonamide]: under 0.01 µM; `N#Cc1ncccc1-c1ccc(N2CC[C@H](NS(=O)(=O)c3ccc4cc(Cl)ccc4c3)C2=O)c(F)c1` [Example 79, 6-Chloro-N-{(3S)-1-[4-(2-cyanopyridin-3-yl)-2-fluorophenyl-]-2-oxopyrrolidin-3-yl}naphthalene-2-sulfonamide]: under 0.01 µM.
As for `O=C1[C@@H](NS(=O)(=O)/C=C/c2ccc(Cl)s2)CCN1c1ccc(-c2ccncc2Cl)cc1F` [Example 80, (E)-N-{(3S)-1-[4-(3-Chloropyridin-4-yl)-2-fluorophenyl]-2-oxopyrrolidin-3-yl}-2-(5-chlorothien-2-yl)ethenesulfonamide], the figure is under 0.01 µM.
